Laboratory results taken from PMC10780633, “Novel Multi-Target Agents Based on the Privileged Structure of 4-Hydroxy-2-quinolinone” (Molecules, 2023).
Where “and” joins values, the source holds several entries; their conditions need not be identical. Equal entries are not always repeated. Each block holds one compound with its values, some of them ahead of it.

How the values were obtained:
[1] = Inhibition of lipid peroxidation of linoleic acid induced by AAPH radical; details: 100 μM
Procedure: (§1) In this work, the carboxamides 3a–3u, the quinolinone–cinnamic or benzoic acid hybrids 11a–11g and the reverse amides 16a–16c were tested for their antioxidant activity via five in vitro techniques; (i) the interaction with the stable free radical 2,2-diphenyl-1-picrylhydrazyl (DPPH); (ii) the inhibition of lipid peroxidation; (iii) the hydroxyl radical scavenging ability; (iv) the 2,2-azino-bis(3-ethylbenzothiazoline-6-sulfonic acid (ABTS) radical cation (ABTS·^+) reduction; and (v) the superoxide anion radical scavenging ability.
The assay for the determination of the inhibition of linoleic acid peroxidation induced by the free radical initiator […](2-amidinopropane) dihydrochloride (AAPH) was performed according to the methods of Hadjipavlou-Litina et al., which we have also used in our previous works.

[2] = Competition with DMSO for hydroxyl radicals; details: 0.1 mM
Procedure: as §1
The assay was performed according to the methods of Pontiki et al. Trolox was used as a reference compound [78].

[3] = biological target: T1, soybean lipoxygenase (Glycine max, UniProt P08170); experiment: Soybean LOX inhibition in vitro (UV absorbance-based assay); assay type: biochemical; details: for inhibition at 100 µM / Inhibition of Soybean Lipoxygenase % at 0.1 mM: 0.1 mM
T1 construct: purchased Sigma Chemical, Co. (St. Louis, MO, USA)
T1 sequence (P08170 1-839): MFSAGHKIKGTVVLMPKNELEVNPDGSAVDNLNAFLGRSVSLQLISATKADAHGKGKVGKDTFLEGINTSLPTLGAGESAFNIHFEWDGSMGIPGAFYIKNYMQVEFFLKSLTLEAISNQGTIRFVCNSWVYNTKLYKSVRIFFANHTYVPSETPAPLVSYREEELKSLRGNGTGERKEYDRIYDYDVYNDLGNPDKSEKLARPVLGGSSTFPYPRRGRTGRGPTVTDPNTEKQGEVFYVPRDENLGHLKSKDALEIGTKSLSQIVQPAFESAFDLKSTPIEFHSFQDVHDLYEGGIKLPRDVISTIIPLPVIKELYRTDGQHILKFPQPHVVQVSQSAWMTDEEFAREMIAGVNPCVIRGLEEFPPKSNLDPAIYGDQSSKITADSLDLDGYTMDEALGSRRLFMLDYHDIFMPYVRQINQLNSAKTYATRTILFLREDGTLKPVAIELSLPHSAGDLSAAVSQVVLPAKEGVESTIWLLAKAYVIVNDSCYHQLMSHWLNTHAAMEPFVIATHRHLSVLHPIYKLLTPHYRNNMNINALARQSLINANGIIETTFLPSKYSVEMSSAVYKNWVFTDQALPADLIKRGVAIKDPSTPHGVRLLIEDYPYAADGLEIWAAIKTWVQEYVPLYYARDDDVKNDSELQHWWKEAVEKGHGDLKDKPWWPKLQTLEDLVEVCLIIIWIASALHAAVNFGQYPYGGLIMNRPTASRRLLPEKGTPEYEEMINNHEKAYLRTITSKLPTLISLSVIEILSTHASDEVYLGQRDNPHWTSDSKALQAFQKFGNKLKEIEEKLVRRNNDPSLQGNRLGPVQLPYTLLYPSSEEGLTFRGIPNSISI
Procedure: For this study, the UV absorbance-based soybean LOX assay was used.
The assay for the determination of the inhibition of soybean LOX was performed according to the methods of Hadjipavlou-Litina et al., which we have also used in our previous works.

[4] = ABTS radical cation decolorization assay; details: 0.1 mM
Procedure: as §1
The experimental technique used in this section was performed according to the methods of Pontiki et al.. The results were compared to the appropriate standard inhibitor Trolox.

[5] = Interaction with the stable free radical DPPH (reducing activity); details: for Interaction with the Free Radical DPPH (%): 100 μM
Procedure: as §1

[6] = Non-enzymatic superoxide anion radical scavenging assay (PMS); details: 0.1 mM
Procedure: as §1
The experimental technique used for this assay was performed according to our previous works. Caffeic acid was used as an appropriate standard.

IC50 [3]: 49 µM
Compound: Cn1c(=O)c(C(=O)Nc2ccc(O)cc2)c(O)c2ccccc21 [Compound 3f, 4-hydroxy-N-(4-hydroxyphenyl)-1-methyl-2-oxo-1,2-dihydroquinoline-3-carboxamide]
Inhibition of Lipid Peroxidation of Linoleic Acid Induced by AAPH Radical (%) [1]: 100% | OH% (hydroxyl radical scavenging) [2]: 67.7% | ABTS% (ABTS radical cation decolorization) [4]: 77.3% | Interaction with the Free Radical DPPH (%) ([5]; 20 min): 39.3% | Interaction with the Free Radical DPPH (%) ([5]; 60 min): 48.6%

Compound: C[C@H](Cc1ccc(O)c(O)c1)[C@@H](C)Cc1ccc(O)c(O)c1 [NDGA, nordihydroguaiaretic acid, reference compound]
Interaction with the Free Radical DPPH (%) ([5]; 20 min): 83.0% | Interaction with the Free Radical DPPH (%) ([5]; 60 min): 94.0%

Compound: Cc1c(C)c2c(c(C)c1O)CCC(C)(C(=O)O)O2 (stereo not drawn) [Trolox, reference compound]
Inhibition of Lipid Peroxidation of Linoleic Acid Induced by AAPH Radical (%) [1]: 88.0% | OH% (hydroxyl radical scavenging) [2]: 82.0% | ABTS% (ABTS radical cation decolorization) [4]: 93.0%

inhibition at 100 µM [3]: 15%
Compound: Cn1c(=O)c(C(=O)Nc2ccc(F)cc2)c(O)c2ccccc21 [Compound 3m, N-(4-fluorophenyl)-4-hydroxy-1-methyl-2-oxo-1,2-dihydroquinoline-3-carboxamide]
Inhibition of Lipid Peroxidation of Linoleic Acid Induced by AAPH Radical (%) [1]: 11.3% | PMS% (superoxide anion radical scavenging) [6]: no | OH% (hydroxyl radical scavenging) [2]: 94.0% | ABTS% (ABTS radical cation decolorization) [4]: 12.4% | Interaction with the Free Radical DPPH (%) ([5]; 20 min): 3.1% | Interaction with the Free Radical DPPH (%) ([5]; 60 min): 1.2% | DPPH radical scavenging activity, time not specified ([5]; reaction time not given): inactive

Inhibition of Soybean Lipoxygenase % at 0.1 mM [3]: inactive and no
Compound: O=C(Nc1ccncc1)c1c(O)c2ccccc2n(-c2ccccc2)c1=O [Compound 3u, 4-hydroxy-2-oxo-1-phenyl-N-(pyridin-4-yl)-1,2-dihydroquinoline-3-carboxamide]
Inhibition of Lipid Peroxidation of Linoleic Acid Induced by AAPH Radical (%) [1]: 16.4% | PMS% (superoxide anion radical scavenging) [6]: no | ABTS% (ABTS radical cation decolorization) [4]: no | Interaction with the Free Radical DPPH (%) ([5]; 20 min): 19.3% | Interaction with the Free Radical DPPH (%) ([5]; 60 min): 8.3%

IC50 [3]: 52 µM and 52.5 µM
Compound: CCn1c(=O)c(C(=O)NCCNC(=O)/C=C/c2ccc(OC(C)=O)c(OC)c2)c(O)c2ccccc21 [Compound 11e, (E)-4-(3-((2-(1-ethyl-4-hydroxy-2-oxo-1,2-dihydroquinoline-3-carboxamido)ethyl)amino)-3-oxoprop-1-en-1-yl)-2-methoxyphenyl acetate]
Inhibition of Lipid Peroxidation of Linoleic Acid Induced by AAPH Radical (%) [1]: 97.0% | Interaction with the Free Radical DPPH (%) ([5]; 20 min): 3.0% | Interaction with the Free Radical DPPH (%) ([5]; 60 min): 5.0%

IC50 [3]: 81 µM
Compound: CCCC(=O)Nc1c(O)c2ccccc2n(C)c1=O [Compound 16a, N-(4-hydroxy-1-methyl-2-oxo-1,2-dihydroquinolin-3-yl)butyramide]
Inhibition of Lipid Peroxidation of Linoleic Acid Induced by AAPH Radical (%) [1]: 83.0% | Interaction with the Free Radical DPPH (%) ([5]; 20 min): 24.0% | Interaction with the Free Radical DPPH (%) ([5]; 60 min): 31.0%

IC50 [3]: 70 µM
Compound: CCn1c(=O)c(C(=O)NCCNC(=O)c2cc(OC)c(OC(C)=O)c(OC)c2)c(O)c2ccccc21 [Compound 11b, 4-((2-(1-ethyl-4-hydroxy-2-oxo-1,2-dihydroquinoline-3-carboxamido)ethyl)carbamoyl)-2,6-dimethoxyphenyl acetate]
Inhibition of Lipid Peroxidation of Linoleic Acid Induced by AAPH Radical (%) [1]: 93.8% | Interaction with the Free Radical DPPH (%) ([5]; 20 min): 3.0% | Interaction with the Free Radical DPPH (%) ([5]; 60 min): no

Inhibition of Soybean Lipoxygenase % at 0.1 mM [3]: no
Compound: 4-hydroxy-N-(2-hydroxy-1-phenylethyl)-1-methyl-2-oxo-1,2-dihydroquinoline-3-carboxamide [Compound 3p]
Inhibition of Lipid Peroxidation of Linoleic Acid Induced by AAPH Radical (%) [1]: 100% | PMS% (superoxide anion radical scavenging) [6]: no | ABTS% (ABTS radical cation decolorization) [4]: no | Interaction with the Free Radical DPPH (%) ([5]; 20 min): 19.5% | Interaction with the Free Radical DPPH (%) ([5]; 60 min): 6.6%

IC50 [3]: 82.5 µM
Compound: Cn1c(=O)c(NC(=O)c2ccccc2O)c(O)c2ccccc21 [Compound 16c, 2-hydroxy-N-(4-hydroxy-1-methyl-2-oxo-1,2-dihydroquinolin-3-yl)benzamide]
Inhibition of Lipid Peroxidation of Linoleic Acid Induced by AAPH Radical (%) [1]: 88.0% | Interaction with the Free Radical DPPH (%) ([5]; 20 min): 25.0% | Interaction with the Free Radical DPPH (%) ([5]; 60 min): 28.0%

IC50 [3]: 100 µM
Compound: Cc1ccc(C(=O)Nc2c(O)c3ccccc3n(C)c2=O)cc1 [Compound 16b, N-(4-hydroxy-1-methyl-2-oxo-1,2-dihydroquinolin-3-yl)-4-methylbenzamide]
Inhibition of Lipid Peroxidation of Linoleic Acid Induced by AAPH Radical (%) [1]: 88.0% | Interaction with the Free Radical DPPH (%) ([5]; 20 min): 27.0% | Interaction with the Free Radical DPPH (%) ([5]; 60 min): 32.0%

IC50 [3]: 85.5 µM
Compound: CCn1c(=O)c(C(=O)NCCNC(=O)/C=C/c2ccccc2)c(O)c2ccccc21 [Compound 11g, (E)-N-(2-cinnamamidoethyl)-1-ethyl-4-hydroxy-2-oxo-1,2-dihydroquinoline-3-carboxamide]
Inhibition of Lipid Peroxidation of Linoleic Acid Induced by AAPH Radical (%) [1]: 97.0% | Interaction with the Free Radical DPPH (%) ([5]; 20 min): no | Interaction with the Free Radical DPPH (%) ([5]; 60 min): 2.0%

Inhibition of Soybean Lipoxygenase % at 0.1 mM [3]: 24.0%
Compound: 4-hydroxy-N-(2-hydroxy-1-phenylethyl)-2-oxo-1-phenyl-1,2-dihydroquinoline-3-carboxamide [Compound 3q]
Inhibition of Lipid Peroxidation of Linoleic Acid Induced by AAPH Radical (%) [1]: 100% | PMS% (superoxide anion radical scavenging) [6]: no | ABTS% (ABTS radical cation decolorization) [4]: no | Interaction with the Free Radical DPPH (%) ([5]; 20 min): 23.8% | Interaction with the Free Radical DPPH (%) ([5]; 60 min): 10.0%

IC50 [3]: 61 µM
Compound: CCn1c(=O)c(C(=O)NCCNC(=O)c2ccc(OC(C)=O)cc2)c(O)c2ccccc21 [Compound 11a, 4-((2-(1-ethyl-4-hydroxy-2-oxo-1,2-dihydroquinoline-3-carboxamido)ethyl)carbamoyl)phenyl acetate]
Inhibition of Lipid Peroxidation of Linoleic Acid Induced by AAPH Radical (%) [1]: 89.0% | Interaction with the Free Radical DPPH (%) ([5]; 20 min): 1.0% | Interaction with the Free Radical DPPH (%) ([5]; 60 min): 4.4%

Compound: O=C(O)/C=C/c1ccc(O)c(O)c1 [Caffeic acid, reference compound]
PMS% (superoxide anion radical scavenging) [6]: 23%

inhibition at 100 µM [3]: 5%
Compound: CCn1c(=O)c(C(=O)NCCNC(=O)/C=C/c2ccc(OC(C)=O)cc2)c(O)c2ccccc21 [Compound 11d, (E)-4-(3-((2-(1-ethyl-4-hydroxy-2-oxo-1,2-dihydroquinoline-3-carboxamido)ethyl)amino)-3-oxoprop-1-en-1-yl)phenyl acetate]
Inhibition of Lipid Peroxidation of Linoleic Acid Induced by AAPH Radical (%) [1]: 94.0% | Interaction with the Free Radical DPPH (%) ([5]; 20 min): 3.0% | Interaction with the Free Radical DPPH (%) ([5]; 60 min): 2.0%

IC50 [3]: 57.5 µM
Compound: CCn1c(=O)c(C(=O)NCCNC(=O)c2ccccc2)c(O)c2ccccc21 [Compound 11c, N-(2-benzamidoethyl)-1-ethyl-4-hydroxy-2-oxo-1,2-dihydroquinoline-3-carboxamide]
Inhibition of Lipid Peroxidation of Linoleic Acid Induced by AAPH Radical (%) [1]: 91.0% | Interaction with the Free Radical DPPH (%) ([5]; 20 min): 2.0% | Interaction with the Free Radical DPPH (%) ([5]; 60 min): 2.0%

IC50 [3]: 70 µM
Compound: CCn1c(=O)c(C(=O)NCCNC(=O)/C=C/c2ccc(OC)cc2)c(O)c2ccccc21 [Compound 11f, (E)-1-ethyl-4-hydroxy-N-(2-(3-(4-methoxyphenyl)acrylamido)ethyl)-2-oxo-1,2-dihydroquinoline-3-carboxamide]
Inhibition of Lipid Peroxidation of Linoleic Acid Induced by AAPH Radical (%) [1]: 93.0% | Interaction with the Free Radical DPPH (%) ([5]; 20 min): 2.0% | Interaction with the Free Radical DPPH (%) ([5]; 60 min): 4.0%
